Laboratory results as given in patent EP1900728A1 (Genecare Research Institute Co., Ltd, priority 2005, dated 2006).
Where two headings read alike, the source gives them in different places.

How the values were obtained:
[1] = tested on: ICAM-1 expression in HT-29 cells; experiment: Measurement of ICAM-1 expressing activity (TNFα-induced ICAM-1 expression, cell ELISA); assay type: cell-based; conditions: Homo sapiens, Table 6, cell activity inhibition test by method (3), read-out: EVALUATION (IC50 class, inhibition of cell activity)
Summary of the method: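 HT-29 cells pretreated with compound (0.5% DMSO final) for 30 min at 37°C, then stimulated with 30 ng/mL human TNFα for 4 h. Surface ICAM-1 measured by cell ELISA on methanol-fixed cells: anti-ICAM-1 plus POD secondary, TMBZ substrate, absorbance at 450 nm.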

[2] = target: T1, IκBα ubiquitinating enzyme (SCF complex: ROC1, Cullin1, Skp1, His-TrCP1; with E1, UbcH5b) (Homo sapiens, UniProt P62877+P63208+Q13616+Q9Y297); experiment: Measurement of ubiquitinating enzyme activity (IκBα ubiquitination, time-resolved fluorescence with Eu(K)-labeled ubiquitin and XL665-labeled anti-GST antibody); assay type: biochemical
T1 construct: His (polyhistidine); made in house; host or cells: insect cells (baculovirus) for the SCF complex and His-E1; E. coli for His-UBCH5b
T1 sequence (Q9Y297 whole entry): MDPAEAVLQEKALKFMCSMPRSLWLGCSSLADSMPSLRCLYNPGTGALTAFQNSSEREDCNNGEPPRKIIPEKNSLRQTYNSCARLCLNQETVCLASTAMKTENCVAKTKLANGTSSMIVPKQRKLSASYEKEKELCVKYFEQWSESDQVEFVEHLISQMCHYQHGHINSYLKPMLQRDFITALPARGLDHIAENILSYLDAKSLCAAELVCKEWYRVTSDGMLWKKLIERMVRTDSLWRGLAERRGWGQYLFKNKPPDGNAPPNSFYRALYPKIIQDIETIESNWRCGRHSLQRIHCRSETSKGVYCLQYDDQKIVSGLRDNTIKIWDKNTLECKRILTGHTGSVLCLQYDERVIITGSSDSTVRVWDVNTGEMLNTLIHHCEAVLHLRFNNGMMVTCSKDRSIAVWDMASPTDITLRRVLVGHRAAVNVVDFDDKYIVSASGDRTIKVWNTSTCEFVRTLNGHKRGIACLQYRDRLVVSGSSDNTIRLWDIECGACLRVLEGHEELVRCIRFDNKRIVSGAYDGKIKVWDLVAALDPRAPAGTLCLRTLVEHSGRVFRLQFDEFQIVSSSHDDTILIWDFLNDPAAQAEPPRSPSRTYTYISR
T1 sequence (Q13616 whole entry): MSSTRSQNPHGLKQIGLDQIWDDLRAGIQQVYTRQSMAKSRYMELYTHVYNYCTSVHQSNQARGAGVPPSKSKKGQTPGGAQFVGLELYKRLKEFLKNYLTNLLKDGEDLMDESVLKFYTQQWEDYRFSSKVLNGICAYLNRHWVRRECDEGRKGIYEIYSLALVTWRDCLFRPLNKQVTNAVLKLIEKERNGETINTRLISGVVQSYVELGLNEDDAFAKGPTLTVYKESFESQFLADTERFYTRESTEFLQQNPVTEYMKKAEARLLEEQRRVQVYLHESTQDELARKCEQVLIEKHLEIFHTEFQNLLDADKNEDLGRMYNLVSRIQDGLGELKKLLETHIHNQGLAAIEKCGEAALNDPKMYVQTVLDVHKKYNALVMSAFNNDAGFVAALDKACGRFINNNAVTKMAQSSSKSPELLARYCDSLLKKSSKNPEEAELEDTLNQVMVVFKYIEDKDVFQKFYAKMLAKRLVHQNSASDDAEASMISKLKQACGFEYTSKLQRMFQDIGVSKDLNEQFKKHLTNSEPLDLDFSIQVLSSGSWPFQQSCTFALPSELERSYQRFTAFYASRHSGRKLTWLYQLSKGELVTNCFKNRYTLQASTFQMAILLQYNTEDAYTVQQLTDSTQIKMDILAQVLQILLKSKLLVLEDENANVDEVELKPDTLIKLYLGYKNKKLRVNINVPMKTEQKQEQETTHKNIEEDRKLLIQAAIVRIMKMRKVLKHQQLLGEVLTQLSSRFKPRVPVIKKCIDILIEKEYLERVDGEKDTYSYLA
T1 sequence (P63208 whole entry): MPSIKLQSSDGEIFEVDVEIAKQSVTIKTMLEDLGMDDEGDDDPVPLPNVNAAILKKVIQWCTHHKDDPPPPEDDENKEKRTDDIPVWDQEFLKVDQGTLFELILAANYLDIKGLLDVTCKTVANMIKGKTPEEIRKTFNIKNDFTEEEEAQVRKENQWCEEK
T1 sequence (P62877 whole entry): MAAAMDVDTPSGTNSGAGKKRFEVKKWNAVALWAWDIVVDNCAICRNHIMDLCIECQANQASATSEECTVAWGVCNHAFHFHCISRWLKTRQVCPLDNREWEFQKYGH
Summary of the method: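 Human SCF complex with E1 and UbcH5b ubiquitinated GST-IκBα pre-phosphorylated by IKKβ (2 mM ATP, pH 7.4, 1 h, RT), with Eu(K)-ubiquitin, 30 min RT. Stopped with EDTA, XL665 anti-GST added for 2 h; 665/620 nm TR-FRET ratio. % inhibition versus no-compound control and no-SCF blank gave IC50.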

[3] = enzyme activity inhibition test, method (1), Table 5, read-out: EVALUATION

| IC50 [1] [µM] | IC50 [2, 3] [µM] | Compound | IC50 [2] [µM] | IC50 ([2]; read-out: EVALUATION, enzyme activity inhibition test, method (1), Table 5) [µM] |
| --- | --- | --- | --- | --- |
| < 40 | < 10 | O=C(O)c1ccc(N2N=C(c3ccoc3)/C(=C/c3ccc(CO)o3)C2=O)cc1 [Compound 247] |  |  |
| < 40 | < 10 | CC1=NN(c2ccc(C(=O)O)cc2)C(=O)/C1=C\c1cccc(O)c1 [Compound 542] |  |  |
| < 40 | < 10 | CC1=NN(c2ccc(C(=O)O)cc2)C(=O)/C1=C\c1ccc(OCC(=O)Nc2ccccc2)cc1 [Compound 537] |  |  |
| < 10 | < 10 | COc1cccc(-c2ccc(/C=C3\C(=O)N(c4ccc(C(=O)O)cc4)N=C3C)o2)c1 [Compound 501] |  |  |
| < 40 | < 10 | COc1cc(/C=C2\C(=O)N(c3ccc(C(=O)O)cc3)N=C2C2CC2)ccc1O [Compound 312] |  |  |
| 10 to 20 | < 10 | CCCCC1=NN(c2ccc(C(=O)O)cc2)C(=O)/C1=C\c1ccc(N2CCC(CO)CC2)cc1 [Compound 443] |  |  |
| 10 to 20 | < 10 | CCCCC1=NN(c2ccc(C(=O)O)cc2)C(=O)/C1=C\c1ccc(N2CCN(C(=O)OC)CC2)cc1 [Compound 298] |  |  |
| < 40 | < 10 | CC1=NN(c2ccc(C(=O)O)cc2)C(=O)/C1=C\c1ccc(NC(=O)c2ccccc2)cc1 [Compound 544] |  |  |
| 10 to 20 | 10 to 20 | COc1cc(/C=C2\C(=O)N(c3ccccc3)N=C2C2CC2)ccc1O [Compound 69] |  |  |
| < 40 | 10 to 20 | COc1cc(/C=C2\C(=O)N(c3ccccc3)N=C2Cc2ccccc2)ccc1OCc1ccccc1 [Compound 24] |  |  |
| < 40 | 10 to 20 | COCC1=NN(c2ccccc2)C(=O)/C1=C\c1ccc(-c2ccccc2F)o1 [Compound 6] |  |  |
| 10 to 20 | < 10 | CC1=NN(c2ccc(S(N)(=O)=O)cc2)C(=O)/C1=C\c1ccc(C(C)(C)C)cc1 [Compound 115] |  |  |
| 10 to 20 | < 10 | CCCCC1=NN(c2ccc(C(=O)O)cc2)C(=O)/C1=C\c1ccc(N2CCN(C)CC2)cc1 [Compound 340] |  |  |
| 10 to 20 | < 10 | COc1ccc(C2=NN(c3ccc(C(=O)O)cc3)C(=O)/C2=C\c2ccc(N3CCCC3)cc2)cc1OC [Compound 281] |  |  |
| 10 to 20 | < 10 | CCCCC1=NN(c2ccc(C(=O)O)cc2)C(=O)/C1=C\c1ccc(-n2ccnc2)cc1 [Compound 302] |  |  |
| < 40 | < 10 | CC1=NN(c2cccc(C(=O)O)c2)C(=O)/C1=C\c1ccc2c(ccn2C(=O)c2ccco2)c1 [Compound 531] |  |  |
| < 40 | 10 to 20 | CC1=NN(c2cccc(C(=O)O)c2)C(=O)/C1=C\c1ccc(N2CCN(C(=O)OC(C)(C)C)CC2)cc1 [Compound 437] |  |  |

| IC50 [1] [µM] | IC50 [2, 3] [µM] | Compound | IC50 [2] [µM] | IC50 ([2]; read-out: EVALUATION, enzyme activity inhibition test, method (1), Table 5) [µM] |
| --- | --- | --- | --- | --- |
| < 40 | < 10 | CC1=NN(c2ccc(C(=O)O)cc2)C(=O)/C1=C\c1ccc2c(ccn2CC2CCCCC2)c1 [Compound 498] |  |  |
| < 10 | < 10 | O=C(O)c1ccc(N2N=C(c3ccoc3)/C(=C/c3ccc(-c4ccccc4F)o3)C2=O)cc1 [Compound 246] |  |  |
| 10 to 20 | < 10 | CC1=NN(c2ccc(C(=O)O)cc2)C(=O)/C1=C\c1ccc2ccccc2c1 [Compound 253] |  |  |
| < 40 | 10 to 20 | COc1cc(/C=C2\C(=O)N(c3cccc(C(=O)O)c3)N=C2C)ccc1OCC1CCCCC1 [Compound 407] |  |  |
| 10 to 20 | < 10 | COc1cc(/C=C2\C(=O)N(c3ccc(C(=O)O)cc3)N=C2C)ccc1OCc1c(C)noc1C [Compound 391] |  |  |
| 10 to 20 | < 10 | COc1cc(/C=C2\C(=O)N(c3ccc(C(=O)O)cc3)N=C2C)ccc1OCC(=O)OC(C)(C)C [Compound 346] |  |  |
| 10 to 20 | < 10 | CC1=NN(c2ccc(C(=O)O)cc2)C(=O)/C1=C\c1ccc(OCC(=O)N2CCCCC2)cc1 [Compound 533] |  |  |
| 10 to 20 | < 10 | O=C1/C(=C\c2ccc(CO)o2)C(Cc2ccccc2)=NN1c1ccccc1 [Compound 27] |  |  |
| < 40 | < 10 | CCOC(=O)COc1ccc(/C=C2\C(=O)N(c3ccc(C(=O)O)cc3)N=C2C)cc1 [Compound 540] |  |  |
| 10 to 20 | < 10 | O=C(O)c1cccc(N2N=C(c3ccoc3)/C(=C/c3ccc(-c4cnn(Cc5ccccc5)c4)o3)C2=O)c1 [Compound 490] |  |  |
| 10 to 20 | 10 to 20 | O=C(O)c1cccc(N2N=C(c3ccoc3)/C(=C/c3ccc(N4CCCC4)cc3)C2=O)c1 [Compound 478] |  |  |
| 10 to 20 | 10 to 20 | CC1=NN(c2cccc(C(=O)O)c2)C(=O)/C1=C\c1ccc(N2CCCC2)cc1 [Compound 472] |  |  |
| 10 to 20 | < 10 | CC1=NN(c2ccc(C(=O)O)cc2)C(=O)/C1=C\c1ccc(-n2cccn2)cc1 [Compound 261] |  |  |
| < 40 | < 10 | COc1ccccc1-c1ccc(/C=C2\C(=O)N(c3cccc(C(=O)O)c3)N=C2c2ccoc2)o1 [Compound 485] |  |  |
| < 40 | < 10 | O=C1/C(=C\c2ccc3ccccc3c2)C(c2ccoc2)=NN1c1ccccc1 [Compound 12] |  |  |
| 10 to 20 | < 10 | CC1=NN(c2ccc(C(=O)O)cc2)C(=O)/C1=C\c1ccc(-n2cncn2)cc1 [Compound 262] |  |  |
| 10 to 20 | < 10 | O=C(O)c1ccc(N2N=C(c3ccccn3)/C(=C/c3ccc(-c4ccccc4F)o3)C2=O)cc1 [Compound 290] |  |  |

| Compound | IC50 [1] [µM] | IC50 [2, 3] [µM] | IC50 [2] [µM] | IC50 ([2]; read-out: EVALUATION, enzyme activity inhibition test, method (1), Table 5) [µM] |
| --- | --- | --- | --- | --- |
| CC1=NN(c2ccc(S(N)(=O)=O)cc2)C(=O)C1=Cc1cccc2ccccc12 [Compound 119] | < 10 |  | 10 to 20 |  |
| COC(=O)N1CCN(c2ccc(C=C3C(=O)N(c4ccc(C(=O)O)cc4)N=C3C3CC3)cc2)CC1 [Compound 315] | < 10 |  | < 10 |  |
| COC(=O)N1CCN(c2ccc(C=C3C(=O)N(c4ccc(C(=O)O)cc4)N=C3c3ccoc3)cc2)CC1 [Compound 245] | 10 to 20 |  | < 10 |  |
| CC1=NN(c2ccc(C(=O)O)cc2)C(=O)C1=Cc1ccc(OCc2ccc([N+](=O)[O-])cc2)cc1 [Compound 541] | < 10 |  | < 10 |  |
| CC1=NN(c2ccc(S(N)(=O)=O)cc2)C(=O)C1=Cc1ccc(NC(=O)c2ccccc2F)cc1 [Compound 225] | < 40 |  | < 10 |  |
| COC(=O)N1CCN(c2ccc(C=C3C(=O)N(c4ccc(C(=O)O)cc4)N=C3C)cc2)CC1 [Compound 254] | < 40 |  | < 10 |  |
| COc1cc(C=C2C(=O)N(c3cccc4ccccc34)N=C2C)ccc1O [Compound 195] | 10 to 20 |  | < 10 |  |
| CCCCC1=NN(c2ccccc2)C(=O)C1=Cc1ccc(-n2cccn2)cc1 [Compound 58] | < 40 |  | < 10 |  |
| COCC1=NN(c2ccc(C(=O)O)cc2)C(=O)C1=Cc1ccc(OCc2ccccc2)c(OC)c1 [Compound 234, 4-[4-(Benzyloxy-3-methoxy-benzylidine)-3-methoxymethyl-5-oxo-4,5-dihydroxy-pyrazol-1-yl] benzoic acid] | < 10 |  |  | < 10 |
| COc1ccccc1C(=O)Nc1ccc(C=C2C(=O)N(c3ccc(S(N)(=O)=O)cc3)N=C2C)cc1 [Compound 228] | 10 to 20 |  | < 10 |  |
| CC1=NN(c2ccc(S(N)(=O)=O)cc2)C(=O)C1=Cc1ccc(NC(=O)c2ccc3ccccc3c2)cc1 [Compound 227] | 10 to 20 |  | < 10 |  |
